Values of other authors, collected in patent publication US9854827B2, “Sweetener” (Tate & Lyle Ingredients Americas LLC, priority 2013, dated 2018).

Details: % of the sweetness of sucrose

## O=C(CO)C(O)C(O)C(O)CO (stereo not shown) [Allulose, allulose]
  sweetness relative to sucrose: around 70%
